Experimental data from patent publication US20220184143A1, “COMPOSITIONS AND METHODS OF MODULATING CASOTRANSMITTER SIGNALING” (CASE WESTERN RESERVE UNIVERSITY, priority 2019, published 2022).

How the values were obtained:
AGO2 [1] = biological target: T1, AGO2 (Homo sapiens, UniProt Q9UKV8); test: AGO2 immunoblot following SNO-RAC in HEK293 cells; format: cell-based; design: endogenous in cells; host or cells: HEK293
Method: S-nitrosylated proteins were isolated by SNO-RAC as described. In brief, cells were lysed in HEN buffer additionally containing 1% NP-40, 50 mM NaCl and protease inhibitors. Free cysteines were blocked with S-Methyl methanethiosulfonate (MMTS). After acetone precipitation and multiple 70% acetone washes, proteins were re-suspended in HEN buffer containing 1% SDS. 50 μl thiopropyl Sepharose 6B resin (GE, Chicago, Ill.) and 50 mM sodium ascorbate were added, followed by rotation in the dark for 4 hr at room temperature. Following multiple washes, the bound proteins were eluted in 2×SDS-PAGE loading buffer containing 10% β-mercaptoethanol. Following separation on reducing pre-cast 4-20% SDS-PAGE gels (Bio-Rad Laboratories, Hercules, Calif.), individual SNO-proteins were detected by Western blotting using specific antibodies (anti-FLAG, anti-myc, anti-ALG-1, anti-AGO2, anti-GW182) or the gel was stained using the SilverQuest™ silver staining kit (ThermoFisher Scientific, Waltham, Mass.) or Imperial™ Protein Stain (ThermoFisher Scientific, Waltham, Mass.), per manufacturer instructions.
Transfected HEK293 or HeLa cells were cultured at 37° C. in 15 cm tissue culture-treated dishes. They were then treated with either 500 μM DETA-NOate (t1/2=20 hr) for 16 hours, 100 μM CysNO for 10 min, or 200 μM dipropylenetriamine (DPTA)-NONOate (Cayman Chemicals, Ann Arbor, Mich.) for 6 hours. […]

AGO2 [2] = biological target: T2, AGO2 (Homo sapiens, UniProt Q9UKV8, C691S); test: let-7 luciferase reporter miRNA activity assay in HeLa cells; format: cell-based; settings: C691S AGO2, Hmga2 3'UTR reporter
T2 construct: expressed in transfected cells; host or cells: HeLa
Method: (§1) 0.5×10^5 cells/well Hela cells were plated in wells of 24 well dishes. They were transiently transfected the next day with 2 μg of either WT-AGO2 or C691S-AGO2, plus 100 ng of either Hmga2 3′UTR-WT luciferase (Luc-wt) or Hmga2 3′UTR-mutant7 luciferase (Luc-m7) control. 100 ng pMax-GFP was also co-transfected to normalize for transfection efficiency. Transfections were carried out using Lipofectamine® 2000 transfection reagent (ThermoFisher Scientific, Waltham, Mass.). Six hours after transfection, the NO donor DETA-NONOate (Cayman Chemicals, Ann Arbor, Mich.) was added at 500 μM. The cells were harvested 24 hours post-transfection, using 1× Passive Lysis Buffer (Promega, Madison, Wis.). Renilla luciferase activity was measuredusing the Renilla Luciferase Assay System (Promega, Madison, Wis.) and a Veritas™ microplate luminometer (Turner BioSystems, Sunnyvale, Calif.) and normalized to GFP readings measured using a BMG FluoStar Galaxy microplate reader. Hmga2 3′UTR WT luciferase (Luc-wt) and Hmga2 3′UTR m7 luciferase (Luc-m7) were gifts from David Bartel (Addgene plasmid #14785 and #14788, respectively)).

AGO2 and GW182 = biological target: T3, AGO2 and GW182 (Homo sapiens, UniProt Q9UKV8); test: Co-immunoprecipitation of AGO2 and GW182 in HEK293 cells; format: cell-based
T3 construct: host or cells: HEK293
Method: Transfected HEK293 or HeLa cells were cultured at 37° C. in 15 cm tissue culture-treated dishes. They were then treated with either 500 μM DETA-NOate (t1/2=20 hr) for 16 hours, 100 μM CysNO for 10 min, or 200 μM dipropylenetriamine (DPTA)-NONOate (Cayman Chemicals, Ann Arbor, Mich.) for 6 hours. Cells were washed once with DPBS without calcium chloride and magnesium chloride from Gibco® (Life Technologies, Carlsbad, Calif.) and incubated on ice for 10 minutes in IP lysis/wash buffer (ThermoFisher Scientific, Waltham, Mass.) with added EDTA-free protease inhibitor tablet (Roche, Basel, Switzerland). This was followed by centrifugation at 14,000 g for 10 minutes to collect the supernatant. The lysates were then used for immunoprecipitation experiments.
For HEK293 cells, all steps were performed either on ice or in the cold room at 4° C. Immunoprecipitations (IP) were performed with 3 mg of total lysate that was pre-cleared using a Pierce™ control agarose resin (ThermoFisher Scientific, Waltham, Mass.), after which 10 μg of IP antibody was added, and samples were incubated overnight at 4° C. with rotation. The next day, 30 μl of protein A/G Sepharose (ThermoFisher Scientific, Waltham, Mass.) was added and the samples were incubated for 2 hours at 4° C. […] The eluates were neutralized by adding 3 μl of 1M Tris-HCl, pH 8.0 and analyzed by western blotting. […]

AGO2 [3] = biological target: T1, AGO2; test: let-7 luciferase reporter miRNA activity assay in HeLa cells; format: cell-based; design: expressed in transfected cells; host or cells: HeLa; settings: WT AGO2, Hmga2 3'UTR reporter
Method: as §1

[4] = cited from earlier work

T1 sequence (Q9UKV8 whole entry): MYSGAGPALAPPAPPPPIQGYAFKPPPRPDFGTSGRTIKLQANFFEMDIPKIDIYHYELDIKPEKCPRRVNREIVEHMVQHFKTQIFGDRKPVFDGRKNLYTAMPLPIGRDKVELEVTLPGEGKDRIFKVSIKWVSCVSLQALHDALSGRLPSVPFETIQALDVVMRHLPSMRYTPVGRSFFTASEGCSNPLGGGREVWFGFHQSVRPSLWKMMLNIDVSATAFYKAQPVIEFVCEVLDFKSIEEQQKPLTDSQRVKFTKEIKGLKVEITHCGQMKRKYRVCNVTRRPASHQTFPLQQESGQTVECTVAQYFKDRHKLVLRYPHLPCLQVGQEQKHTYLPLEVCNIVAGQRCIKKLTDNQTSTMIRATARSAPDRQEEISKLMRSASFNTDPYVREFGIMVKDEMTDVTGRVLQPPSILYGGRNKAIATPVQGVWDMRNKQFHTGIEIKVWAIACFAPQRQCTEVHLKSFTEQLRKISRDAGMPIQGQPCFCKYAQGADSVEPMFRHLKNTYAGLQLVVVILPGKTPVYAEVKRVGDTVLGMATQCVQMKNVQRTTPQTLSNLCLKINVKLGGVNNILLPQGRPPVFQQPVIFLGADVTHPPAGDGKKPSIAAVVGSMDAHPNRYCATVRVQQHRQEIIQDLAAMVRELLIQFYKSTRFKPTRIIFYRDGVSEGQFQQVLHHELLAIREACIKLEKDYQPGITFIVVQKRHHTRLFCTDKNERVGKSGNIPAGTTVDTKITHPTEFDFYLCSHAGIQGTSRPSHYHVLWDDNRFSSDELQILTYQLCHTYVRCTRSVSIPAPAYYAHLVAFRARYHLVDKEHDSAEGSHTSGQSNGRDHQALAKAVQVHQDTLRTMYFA
T3 sequence (Q9UKV8 whole entry): as above
T2 sequence (Q9UKV8 whole entry C691S): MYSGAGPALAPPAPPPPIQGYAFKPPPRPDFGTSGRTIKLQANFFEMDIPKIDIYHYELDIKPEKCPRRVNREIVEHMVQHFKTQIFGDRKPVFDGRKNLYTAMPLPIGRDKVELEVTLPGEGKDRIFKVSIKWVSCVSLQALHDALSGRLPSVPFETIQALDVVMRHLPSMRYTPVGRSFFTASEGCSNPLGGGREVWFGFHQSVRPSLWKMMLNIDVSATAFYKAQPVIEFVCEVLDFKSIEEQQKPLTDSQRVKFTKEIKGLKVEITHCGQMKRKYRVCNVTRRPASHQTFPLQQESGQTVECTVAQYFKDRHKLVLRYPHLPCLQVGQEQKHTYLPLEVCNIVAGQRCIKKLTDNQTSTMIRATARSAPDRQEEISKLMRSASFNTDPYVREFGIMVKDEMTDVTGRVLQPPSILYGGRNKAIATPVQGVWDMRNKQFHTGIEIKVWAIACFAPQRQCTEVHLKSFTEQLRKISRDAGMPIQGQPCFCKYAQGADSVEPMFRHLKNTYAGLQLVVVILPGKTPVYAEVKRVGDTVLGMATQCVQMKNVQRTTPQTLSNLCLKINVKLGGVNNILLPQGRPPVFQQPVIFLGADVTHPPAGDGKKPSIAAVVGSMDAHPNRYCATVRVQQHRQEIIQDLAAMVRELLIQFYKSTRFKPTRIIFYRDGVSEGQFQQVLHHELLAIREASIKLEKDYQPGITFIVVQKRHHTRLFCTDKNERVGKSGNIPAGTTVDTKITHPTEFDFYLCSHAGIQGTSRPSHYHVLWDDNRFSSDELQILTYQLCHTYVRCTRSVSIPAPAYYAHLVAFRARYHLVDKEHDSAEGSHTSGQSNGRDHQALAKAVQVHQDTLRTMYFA

S-nitrosylation of WT AGO2 (AGO2 [1]; HEK293 cells transfected with WT AGO2, 100 μM)	S-nitrosylation of AGO2 by endogenous eNOS (AGO2 [1]; HEK293 cells, 500 μM)	mutant C691S AGO2 activity (AGO2 [2])	association of WT AGO2 with GW182 (AGO2 and GW182; co-immunoprecipitation, transfected HEK293 cells)	interaction between endogenous AGO2 and GW182 (AGO2 and GW182; cultured mammalian cells)	WT AGO2 repression of luciferase target (AGO2 [3])	SMILES	t1/2 [4] [h]
strongly S-nitrosylated						N[C@@H](CSN=O)C(=O)O [CysNO, S-nitrosocysteine]	
	enhanced	little effect	strongly inhibited	inhibited	repressed its target poorly	NCCN(CCN)/[N+]([O-])=N/O [DETA-NO, DETA-NONOate]	20
